According to US20070117743A1, “New antitumoral compounds” (priority 2003, published 2007):
Where a SMILES comes first, the peptide text is derived from it. Bridges are numbered along the chain shown (N, C = ends). [ ]: non-standard residue; d: D form. The star is where a group is joined. d(aIle) = CC[C@H](C)[C@@H](N)C(=O)O; d(aThr) = C[C@@H](O)[C@@H](N)C(=O)O; Hexanoyl(5-Me) = CC(C)CCCC(=O)*; Orn = NCCC[C@H](N)C(=O)O; Dhb = C/C=C(\N)C(=O)O

What was measured:
Type in all cases: cell-based, human
A-549 = test: SRB colorimetric assay of cell growth and viability, A-549; conditions: 48 hours exposure; for GI50: read-out: GI50 A-549; for CC50: read-out: LC50 A-549
SK-MEL-28 = test: SRB colorimetric assay of cell growth and viability, SK-MEL-28; conditions: 48 hours exposure; for CC50: read-out: LC50 MEL-28
HT-29 = test: SRB colorimetric assay of cell growth and viability, HT-29; conditions: 48 hours exposure; for GI50: read-out: GI50 HT-29; for CC50: read-out: LC50 HT-29
LoVo = test: SRB colorimetric assay of cell growth and viability, LoVo; conditions: 48 hours exposure; for CC50: read-out: LC50 LOVO
LoVo-Dox = test: SRB colorimetric assay of cell growth and viability, LoVo-Dox; conditions: 48 hours exposure; for CC50: read-out: LC50 LOVO-DOX
In short: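 First, 5×10^3 cells per well attach for 18 hours in RPMI 1640 with 10% FBS at 37° C and 5% CO2. Next, samples spanning 10 to 10^−8 μg/mL are added for 48 hours. Finally, cells are fixed with TCA, stained with SRB for 10 minutes and read at 490 nm.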

DU-145 = test: SRB colorimetric assay of cell growth and viability, DU-145; conditions: 48 hours exposure
IGROV-1 = test: SRB colorimetric assay of cell growth and viability, IGROV-1; conditions: 48 hours exposure
IGROV-ET = test: SRB colorimetric assay of cell growth and viability, IGROV-ET; conditions: 48 hours exposure; for CC50: read-out: LC50 IGROV-ET
HeLa = test: SRB colorimetric assay of cell growth and viability, HeLa; conditions: 48 hours exposure; for CC50: read-out: LC50 HELA
HeLa-APL = test: SRB colorimetric assay of cell growth and viability, HeLa-APL; conditions: 48 hours exposure; for CC50: read-out: LC50 HELA-APL
K-562 = test: SRB colorimetric assay of cell growth and viability, K-562; conditions: 48 hours exposure; for CC50: read-out: LC50 K-562
PANC-1 = test: SRB colorimetric assay of cell growth and viability, PANC-1; conditions: 48 hours exposure; for CC50: read-out: LC50 PANC-1

SMILES	TGI A-549 (A-549)	GI50 (A-549)	CC50 (A-549)	GI50 (SK-MEL-28)	TGI MEL-28 (SK-MEL-28)	CC50 (SK-MEL-28)	TGI HT-29 (HT-29)	GI50 (HT-29)	CC50 (HT-29)	GI50 (LoVo)	TGI LOVO (LoVo)	CC50 (LoVo)	GI50 (LoVo-Dox)	TGI LOVO-DOX (LoVo-Dox)	CC50 (LoVo-Dox)	GI50 (DU-145)	LC50 (concentration causing 50% net cell kill) (DU-145)	TGI DU-145 (DU-145)	GI50 (IGROV-1)	LC50 (concentration causing 50% net cell killing) (IGROV-1)	further results
C/C=C1\NC(=O)[C@H](Cc2ccccc2)NC(=O)[C@@H](C(C)C)NC(=O)[C@@H]([C@@H](C)CC)NC(=O)[C@H](NC(=O)[C@H](NC(=O)[C@H](CCCN)NC(=O)[C@H]2CCCN2C(=O)[C@H](NC(=O)[C@@H](NC(=O)[C@H](CC(C)C)NC(=O)CCCC(C)C)C(C)C)C(C)C)[C@@H](C)CC)[C@@H](C)OC(=O)[C@H](C(C)C)NC1=O [Compound 54, [Leu^12, noD-Val^13]-KF] ({Hexanoyl(5-Me)}-LV[dV][dP][Orn][d(aIle)][d(aThr)][d(aIle)][dV]F[Dhb]V; ester 7-C)	2.19E−06 Molar	1.14 µM	4.23 µM	1.24 µM	2.20E−06 Molar	3.9 µM	3.51E−06 Molar	1.88 µM	6.55 µM	1.08 µM	2.14E−06 Molar	4.21 µM	1.55 µM	2.88E−06 Molar	5.37 µM	1.49 µM	4.61 µM	2.62E−06 Molar	1.11 µM	3.92 µM	TGI IGROV (IGROV-1): 2.09E−06 Molar; GI50 (IGROV-ET): 1.45 µM; TGI IGROV-ET (IGROV-ET): 2.57E−06 Molar; CC50 (IGROV-ET): 4.57 µM; GI50 (HeLa): 0.841 µM; TGI HELA (HeLa): 1.73E−06 Molar; CC50 (HeLa): 3.54 µM; GI50 (HeLa-APL): 1.08 µM; TGI HELA-APL (HeLa-APL): 2.04E−06 Molar; CC50 (HeLa-APL): 3.88 µM; GI50 (K-562): 1.31 µM; TGI K-562 (K-562): 2.40E−06 Molar; CC50 (K-562): 4.41 µM; GI50 (PANC-1): 0.863 µM; TGI PANC-1 (PANC-1): 2.01E−06 Molar; CC50 (PANC-1): 4.68 µM
C/C=C1\NC(=O)[C@H](Cc2ccccc2)NC(=O)[C@@H](C(C)C)NC(=O)[C@@H]([C@@H](C)CC)NC(=O)[C@H](NC(=O)[C@H](NC(=O)[C@H](CCCN)NC(=O)[C@H]2CCCN2C(=O)[C@H](NC(=O)[C@@H](NC(=O)[C@@H]2CCCN2C(=O)CCCC(C)C)C(C)C)C(C)C)[C@@H](C)CC)[C@@H](C)OC(=O)[C@H](C(C)C)NC1=O [Compound 55, [Pro^12, noD-Val^13]-KF] ({Hexanoyl(5-Me)}-PV[dV][dP][Orn][d(aIle)][d(aThr)][d(aIle)][dV]F[Dhb]V; ester 7-C)	7.27E−06 Molar	7.27 µM	7.27 µM	7.27 µM	7.27E−06 Molar	7.27 µM	7.27E−06 Molar	7.27 µM	7.27 µM	7.27 µM	7.27E−06 Molar	7.27 µM	7.27 µM	7.27E−06 Molar	7.27 µM	7.27 µM	7.27 µM	7.27E−06 Molar	7.27 µM	7.27 µM	TGI IGROV (IGROV-1): 7.27E−06 Molar; GI50 (IGROV-ET): 7.27 µM; TGI IGROV-ET (IGROV-ET): 7.27E−06 Molar; CC50 (IGROV-ET): 7.27 µM; GI50 (HeLa): 7.27 µM; TGI HELA (HeLa): 7.27E−06 Molar; CC50 (HeLa): 7.27 µM; GI50 (HeLa-APL): 7.27 µM; TGI HELA-APL (HeLa-APL): 7.27E−06 Molar; CC50 (HeLa-APL): 7.27 µM; GI50 (K-562): 7.27 µM; TGI K-562 (K-562): 7.27E−06 Molar; CC50 (K-562): 7.27 µM; GI50 (PANC-1): 7.27 µM; TGI PANC-1 (PANC-1): 7.27E−06 Molar; CC50 (PANC-1): 7.27 µM
